Laboratory results reported in ChEMBL document CHEMBL1125398, “Antiestrogens. 3. Estrogen receptor affinities and antiproliferative effects in MCF-7 cells of phenolic analogues of trioxifene, [3,4-dihydro-2-(4- methoxyphenyl)-1-naphthalenyl][4-[2-(1-pyrrolidinyl)ethoxy]- phenyl]methanone” (J Med Chem, 1992).

Legend:
Homo sapiens = species: Homo sapiens; experiment: Inhibition of Calmodulin activation of cyclic nucleotide phosphodiesterase; type: functional; conditions: concentration not given here
Estrogen receptor = Estrogen receptor (Homo sapiens, UniProt Q92731+P03372); conditions: mcf7
Description: Displacement of [3H]estradiol from Estrogen receptor in MCF-7 cells

inhibition (Homo sapiens) [%]	IC50 (Estrogen receptor) [nM]	SMILES
6	–	O=C(c1ccc(OCCN2CCCCC2)cc1)c1c(-c2ccc(O)cc2)sc2cc(O)ccc12
22	740	Oc1ccc2c3c(ccc2c1)-c1ccccc1C3c1ccc(OCCN2CCCCC2)cc1 (configuration not stated)
6	1650	O=C(C1=C(c2ccccc2)CCc2cc(O)ccc21)c1ccc(OCCN2CCCCC2)cc1
18	125	Oc1ccc2c(c1)C(c1ccc(OCCN3CCCCC3)cc1)c1c-2ccc2cc(O)ccc12 (configuration not stated)
44	–	CC/C(=C(\c1ccccc1)c1ccc(OCCN(C)C)cc1)c1ccccc1
3	120	O=C(c1ccc(OCCN2CCCC2)cc1)c1c(-c2ccc(O)cc2)sc2cc(O)ccc12 [LY-117018]

SMILES	inhibition (Homo sapiens) [%]	IC50 (Estrogen receptor) [nM]
O=C(C1=C(c2ccc(O)cc2)CCc2cc(O)ccc21)c1ccc(OCCN2CCCCC2)cc1	2	73
